Values of other authors in patent US8506359B2, “Aqueous dispersion for chemical mechanical polishing and chemical mechanical polishing method” (JSR Corporation, priority 2008, dated 2013).

conditions: 25° C.; second carboxyl group for two carboxyl groups, third carboxyl group for three or more

SMILES	pKa
O=C(O)C1CCCCCCC1C(=O)O (stereo not drawn) [1,2-Cyclooctanedicarboxylic acid (cis), 1,2-Cyclooctanedicarboxylic acid]	7.34
O=C(O)C1CCCCCC1C(=O)O (stereo not drawn) [1,2-Cycloheptanedicarboxylic acid (trans)]	6.18
O=C(O)C1CCCCCC1C(=O)O (stereo not drawn) [1,2-Cycloheptanedicarboxylic acid (cis), 1,2-Cycloheptanedicarboxylic acid]	7.60
O=C(O)C1CCCCCCC1C(=O)O (stereo not drawn) [1,2-Cyclooctanedicarboxylic acid (trans), 1,2-Cyclooctanedicarboxylic acid]	6.24

The remaining lines, values ahead:

pKa	SMILES
6.57	O=C(O)C1CCCC1C(=O)O (stereo not drawn) [1,2-Cyclopentanedicarboxylic acid (cis), 1,2-Cyclopentanedicarboxylic acid]
5.99	O=C(O)C1CCCC1C(=O)O (stereo not drawn) [1,2-Cyclopentanedicarboxylic acid (trans)]
